Counter-ions that a name gives are not always drawn.

This is an account of results in patent US9393221B2, “Methods and compounds for reducing intracellular lipid storage” (THE GENERAL HOSPITAL CORPORATION, priority 2011, dated 2016).

In one assay the test system is ATGL-KO iPSCs. Nature of the assay: High throughput iPSC chemical screening, Oil Red O (ORO) lipid accumulation. For Z-score: test concentration or dose not given here. It counts as cell-based, mouse.
Details: not given
Take `CC(=C(CCO)SSCC1CCCO1)N(C=O)Cc1cnc(C)nc1N` (stereo in doubt) [Fursultiamine Hydrochloride]: the Z-score is listed as −0.696. `CC(C)c1cccc(C(C)C)c1O` [Propofol] returned a Z-score of −0.9649. Still for that read-out and setting: the same measure for `CC(N)C(O)c1ccccc1` (centres unmarked) [Phenylpropanolamine hydrochloride]: 0.2625; for `O=C(O)C1CCCNC1` (racemic) [(±)-Nipecotic acid]: 0.6655.

Still in this assay, the particulars now being: glycolytic switch compounds.
As for `Clc1ccc(C(Cn2ccnc2)OCc2csc3c(Cl)cccc23)c(Cl)c1` (centres unmarked) [Sertaconazole nitrate], the “Rank in normalized ORO score from screen” value turned out to be 464. Same read-out and setting: the same measure for `CN(C)c1nc(N(C)C)nc(N(C)C)n1` [Altretamine]: 814.

The same assay, now with this note: normalized ORO level vs DMSO-treated cells; compound present during 7 days differentiation, 96-well; negative = decrease in lipid accumulation.
On to `CN1[C@@H]2CC[C@H]1C[C@@H](OC(=O)[C@H](CO)c1ccccc1)C2` [Hyoscyamine (L)], for which the Z-score is reported as 1.204. Still for that read-out and setting: under `CCN(CC)CCOC(=O)C(Cc1cccc2ccccc12)CC1CCCO1` (centres unmarked) [Nafronyl oxalate] stands 0.6546; under `COc1cc(N)c(Cl)cc1C(=O)NC1CCN(CCCOc2ccc(F)cc2)CC1OC` (centres unmarked) [Cisapride], 0.02062. As for `Cc1cccc(C)c1NC(=O)CN1CCN(CCCC(c2ccc(F)cc2)c2ccc(F)cc2)CC1` [Lidoflazine], the Z-score is 1.42. Antimycin A had a Z-score of 30.555. Take `CC1=CC(=O)C2=C(C)CC[C@@H]3[C@H](OC(=O)[C@H]3C)[C@@H]12` [Leucomisine]: the Z-score is recorded as −0.2458. Same read-out and setting: under `Cc1ccc(N(CC2=NCCN2)c2cccc(O)c2)cc1` [Phentolamine hydrochloride] stands 0.3245; under `Cc1c(-c2ccccc2)oc2c(C(=O)OCCN3CCCCC3)cccc2c1=O` [Flavoxate hydrochloride], 0.3535. The same measure, in the same setting: the same measure for `CCn1cc(C(=O)O)c(=O)c2cc(F)c(N3CCNC(C)C3)c(F)c21` (centres unmarked) [Lomefloxacin hydrochloride]: 0.00477; for `N[C@@H](Cc1cc(I)c(Oc2ccc(O)c(I)c2)c(I)c1)C(=O)O` [Liothyronine]: 0.1954. On the same count and under the same terms, the same measure for `O=c1c(O)c(-c2cc(O)c(O)c(O)c2)oc2cc(O)cc(O)c12` [Myricetin]: 27.33; for `CC(=O)O[C@H]1C[C@@H]2CC[C@@H]3[C@H](CC[C@@]4(C)[C@H]3C[C@H]([N+]3(C)CCCCC3)[C@@H]4OC(C)=O)[C@@]2(C)C[C@@H]1[N+]1(C)CCCCC1` [Pancuronium bromide]: 0.2708. Molecule `Clc1ccc(C(Cn2ccnc2)OCc2csc3c(Cl)cccc23)c(Cl)c1` (centres unmarked) [Sertaconazole nitrate] had a Z-score of −0.4658. Same read-out and setting: the same measure for `C[C@@H]1[C@H](O)[C@@H](C)/C=C/C=C/CC/C=C/C=C/C=C/C=C/C(O[C@H]2O[C@H](C)[C@@H](O)[C@H](N)[C@@H]2O)CC2O[C@](O)(CC(O)C(O)CCC(O)CC(O)CC(O)CC(=O)O[C@H]1C)CC(O)C2C(=O)O` (some centres unmarked) [Nystatine]: −0.6743; for `O=C1c2c(O)ccc(O)c2C(=O)c2c(NCCNCCO)ccc(NCCNCCO)c21` [Mitoxantrone dihydrochloride]: 45.2169; for `O=C1OC(CN2CCOCC2)CN1/N=C/c1ccc([N+](=O)[O-])o1` (centres unmarked) [Furaltadone hydrochloride]: −0.4516.

Regarding `CCOc1ccc2c(c1)C(C)=CC(C)(C)N2` [Ethoxyquin], the Z-score was −0.0471. Same read-out and setting: under `CC(=O)O[C@]1(C(C)=O)CC[C@H]2[C@@H]3C=C(Cl)C4=CC(=O)[C@@H]5C[C@@H]5[C@]4(C)[C@H]3CC[C@@]21C` [Cyproterone acetate] stands −1.2528.

In turn, `CCCc1ncc(C[n+]2ccccc2C)c(N)n1` [Amprolium hydrochloride] returned a Z-score of 0.8329. On the same count and under the same terms, the same measure for `C=C(C)[C@@H]1CC[C@]2(C(=O)O)CC[C@]3(C)[C@H](CC[C@@H]4[C@@]5(C)CC[C@H](O)C(C)(C)[C@@H]5CC[C@]43C)[C@@H]12` [Betulinic acid]: 0.4119; for `C[C@]12CC[C@H](O)C[C@H]1CC[C@@H]1[C@@H]2C[C@@H](O)[C@]2(C)[C@@H](C3=CC(=O)OC3)CC[C@]12O` [Digoxigenin]: −1.0521. The same measure, in the same setting: the same measure for `c1ccc2[nH]c(-c3cscn3)nc2c1` [Tiabendazole]: −0.3752; for `Nc1nc(O)c2[nH]nnc2n1` [Azaguanine-8]: 2.948; for `Cc1cc(NS(=O)(=O)c2ccc(N)cc2)no1` [Sulfamethoxazole]: −0.4061. Still for that read-out and setting: the same measure for `CO/N=C(\C(=O)N[C@@H]1C(=O)N2C(C(=O)O)=C(COC(C)=O)CS[C@H]12)c1csc(N)n1` [Cefotaxime sodium salt]: −0.8289. `C[C@]12CCC(=O)C=C1C=C[C@@H]1[C@@H]2CC[C@@]2(C)[C@H]1CC[C@@]2(O)CCC(=O)O` [Canrenoic acid potassium salt] came in with a Z-score of −0.274. The same measure, in the same setting: under `CCN[C@H]1C[C@H](C)S(=O)(=O)c2sc(S(N)(=O)=O)cc21` [Dorzolamide hydrochloride] stands 1.587. On the same count and under the same terms, the same measure for `Nc1ccc(C(=O)NCC(=O)O)cc1` [Aminohippuric acid]: −1.1341.

For `C[C@@H]1CN([C@H]2CC[C@](C#N)(c3ccc(F)cc3)CC2)CC[C@]1(C(=O)O)c1ccccc1` [Levocabastine hydrochloride], the Z-score is 1.078. On the same count and under the same terms, under `CN(C)CCC(c1ccc(Br)cc1)c1ccccn1` (centres unmarked) [Brompheniramine maleate] stands 1.885. The same measure, in the same setting: under `CC(=O)O[C@]1(C(C)=O)CC[C@H]2[C@@H]3C=C(C)C4=CC(=O)CC[C@]4(C)[C@H]3CC[C@@]21C` [Megestrol acetate] stands 1.362; under `COc1ccc(Cc2nccc3cc(OC)c(OC)cc23)cc1OC` [Papaverine hydrochloride], 9.542; under `C=CCOc1ccccc1OCC(O)CNC(C)C` (centres unmarked) [Oxprenolol hydrochloride], −0.2057. Same read-out and setting: under `N[C@@H](C(=O)N[C@@H]1C(=O)N2C(C(=O)O)=C(Cl)CC[C@H]12)c1ccccc1` [Loracarbef] stands 0.6457; under `COc1ccc2cc(CCC(C)=O)ccc2c1` [Nabumetone], −0.6754. Consider `C=C1CC[C@H](O)C/C1=C/C=C1\CCC[C@]2(C)[C@@H]([C@H](C)CCCC(C)C)CC[C@@H]12` [Cholecalciferol], for which the Z-score amounted to 0.4701. The same measure, in the same setting: under `COC(=O)[C@H]1[C@H]2C[C@@H]3c4[nH]c5cc(OC)ccc5c4CCN3C[C@H]2C[C@@H](OC(=O)c2cc(OC)c(OC)c(OC)c2)[C@@H]1OC` [Reserpine] stands −0.083.

The molecule `Cc1c(C)c2c(c(C)c1O)CCC(C)(C(=O)O)O2` (centres unmarked) [Trolox] displayed a Z-score of −1.1986. Same read-out and setting: under `CC(C)NCC(O)c1ccc(NS(C)(=O)=O)cc1` (centres unmarked) [Sotalol hydrochloride] stands 0.2363; under `COc1ccc2c(c1OC)C(=O)O[C@@H]2[C@H]1c2cc3c(cc2CCN1C)OCO3` [Hydrastine hydrochloride], −0.3277. The molecule `CCCNCC(O)COc1ccccc1C(=O)CCc1ccccc1` (centres unmarked) [Propafenone hydrochloride] displayed a Z-score of −0.6438. The same measure, in the same setting: under `CC1(C)NC(=O)N(c2ccc([N+](=O)[O-])c(C(F)(F)F)c2)C1=O` [Nilutamide] stands −1.5582. `CC(=O)[N-]S(=O)(=O)c1ccc(N)cc1.O.[Na+]` [Sulfacetamide sodic hydrate]: the Z-score is on record as −0.3059. Turning to `COc1ccccc1OCC(O)CO` (centres unmarked) [Guaifenesin], the Z-score was 0.144. On the same count and under the same terms, under `C[C@H](CCC(=O)O)[C@H]1CC[C@H]2[C@@H]3CC[C@@H]4C[C@H](O)CC[C@]4(C)[C@H]3CC[C@]12C` [Lithocholic acid] stands 0.8022; under `C#C[C@]1(O)CC[C@H]2[C@@H]3CCc4cc(OC)ccc4[C@H]3CC[C@@]21C` [Ethynylestradiol 3-methyl ether], −0.93. On the same count and under the same terms, under `N[C@@H](C(=O)N[C@@H]1C(=O)N2C(C(=O)O)=C(Cl)CS[C@H]12)c1ccccc1` [Cefaclor] stands −0.5619; under `CN(C)c1nc(N(C)C)nc(N(C)C)n1` [Altretamine], 0.5601. The same measure, in the same setting: under `CCCCN(CCCC)CCCOC(=O)c1ccc(N)cc1` [Butacaine] stands −0.9284. `CO[C@@]1(NC(=O)Cc2cccs2)C(=O)N2C(C(=O)O)=C(COC(N)=O)CS[C@@H]21` [Cefoxitin sodium salt] registered a Z-score of −1.629. `CCCc1cc(=O)[nH]c(=S)[nH]1` [Propylthiouracil] showed a Z-score of −0.0857. Same read-out and setting: under `CC1(C)[C@@H](OC(=O)CCC(=O)O)CC[C@]2(C)[C@H]3C(=O)C=C4[C@@H]5C[C@@](C)(C(=O)O)CC[C@]5(C)CC[C@@]4(C)[C@]3(C)CC[C@@H]12` [Carbenoxolone disodium salt] stands −1.2656; under `CC(C)(C)NCC(O)COc1cccc2c1CCC(=O)N2` (centres unmarked) [Carteolol hydrochloride], −0.6876; under `O=C(CCCN1CCC2(CC1)C(=O)NCN2c1ccccc1)c1ccc(F)cc1` [Spiperone], −1.6819.

Molecule `Nc1ncn([C@@H]2O[C@H](CO)[C@@H](O)[C@H]2O)c(=O)n1` [Azacytidine-5] gave a Z-score of 16.1728. The same measure, in the same setting: under `C[N+]1(C)C[C@H](O)C[C@H]1C(=O)[O-]` [Betonicine] stands 0.1235; under `Clc1ccccc1CN1CCc2sccc2C1` [Ticlopidine hydrochloride], −1.0702. `O=c1ccc2cc(O[C@@H]3O[C@H](CO)[C@@H](O)[C@H](O)[C@H]3O)c(O)cc2o1` [Esculin Hydrate] returned a Z-score of −1.2808. On the same count and under the same terms, the same measure for `CC(C)N1CCN(c2ccc(OCC3COC(Cn4cncn4)(c4ccc(Cl)cc4Cl)O3)cc2)CC1` (centres unmarked) [Terconazole]: −0.3786. The same measure, in the same setting: under `C[C@@H]1CC[C@@]2(NC1)O[C@H]1C[C@H]3[C@@H]4CC=C5C[C@@H](O)CC[C@]5(C)[C@H]4CC[C@]3(C)[C@H]1[C@@H]2C` [Solasodine] stands −0.5386. Same read-out and setting: under `C=C(C)[C@@H]1CC[C@]2(CO)CC[C@]3(C)[C@H](CC[C@@H]4[C@@]5(C)CC[C@H](O)C(C)(C)[C@@H]5CC[C@]43C)[C@@H]12` [Betulin] stands −1.4148; under `CN(C(=O)CN(CCO)CC(=O)N(C)C(C)(C)Cc1ccccc1)C(C)(C)Cc1ccccc1` [Oxethazaine], −0.9515.
